Assay results from patent US4579859A, “Vasodilating trinitratoalkyl esters of 2-cyano-1,4-dihydropyridines” (Fujisawa Pharmaceutical Co., Ltd., priority 1983, dated 1986).
Values after ≈ are worked out from the molar mass of the structure shown. Read-outs that look alike come from different tables or passages of the source.

Tested on: isolated coronary artery
Assay: Effect on isolated coronary artery (relaxation of KF-contracted spiral strips; papaverine 10^-4 M = 100%)
Design: species or system dogs
Conditions: Canis lupus familiaris, read-out: ED50 values
Protocol: The large coronary arteries, 2.0 mm in outside diameter were removed from pentobarbital-anesthetized dogs. Spiral strips approximately 15 mm in length were cut from the large arteries, and suspended in an organ bath containing calcium-free-Tyrode's solution with EGTA 0.2 mM at 37° C., aerated with a gas mixture of 95% oxygen and 5% carbon dioxide. The tonus of the strips was recorded on a polygraph with a force-displacement transducer. After the initial resting tension was adjusted to 1.0 g for the large artery, potassium fluoride 10 mM was added to the organ bath to increase the tonus of the large arterial strips to 1.4-1.6 g.
The cumulative concentrations of the test compound were then added, and finally paraverine 10^-4 M was given to determine maximum relaxation. ED50 values were calculated by interpolation from the mean cumulative dose-activity curves (effect of papaverine 10^-4 M=100%).

Compound	EC50 (isolated dog large coronary artery strips, calcium-free Tyrode's solution with EGTA 0.2 mM, 37° C., tonus by potassium fluoride 10 mM, cumulative concentrations, papaverine 10^-4 M = 100%) [µg/mL]	EC50 [µg/mL]
COC(=O)C1=C(C)NC(C)=C(C(=O)OC)C1c1ccccc1[N+](=O)[O-] [Nifedipine, Dimethyl esters of 2,6-dimethyl-4-(2-nitrophenyl)-3,5-dicarboxylic acid, reference compound]	> 1	–
COC(=O)C1=C(C#N)NC(C)=C(C(=O)OCC(CO[N+](=O)[O-])(CO[N+](=O)[O-])CO[N+](=O)[O-])C1c1cccc([N+](=O)[O-])c1 (stereo not drawn) [Compound B, 3-Nitrooxy-2,2-bis(nitrooxymethyl)propyl ester of 6-cyano-5-methoxycarbonyl-2-methyl-4-(3-nitrophenyl)-1,4-dihydropyridine-3-carboxylic acid]	–	0.17 (≈ 0.285 µM)
CCOC(=O)C1=C(C)NC(C)=C(C(=O)OCC(CO[N+](=O)[O-])(CO[N+](=O)[O-])CO[N+](=O)[O-])C1c1cccc(Cl)c1Cl (stereo not drawn) [Compound A, 3-Nitrooxy-2,2-bis(nitrooxymethyl)propyl ester of 4-(2,3-dichlorophenyl)-5-ethoxycarbonyl-2,6-dimethyl-1,4-dihydropyridine-3-carboxylic acid]	–	0.97 (≈ 1.56 µM)
